From PubChem BioAssay AID1996
Converted amounts (≈) assume the structure as drawn. Non-standard residues stand in square brackets, D forms with d. Residues, ends and D or L forms follow the SMILES beside them. pGlu = O=C1CC[C@@H](C(=O)O)N1; Thz = O=C(O)[C@@H]1CSCN1

settings: buffer; pH 7.4; 200.0 µM

| SMILES | solubility kinetic |
| --- | --- |
| Nc1nc(NCc2ccco2)nc(N2CCOCC2)c1[N+](=O)[O-] | > 48 µg/mL |
| CC(Oc1ccccc1)C(=O)N1CCN=C1SCc1ccccc1F (configuration not stated) | 11.4 µg/mL (≈ 31.8 µM) |
| O=C(N/C(=C\c1ccccc1)C(=O)N1CCOCC1)c1ccco1 | > 49 µg/mL |
| CCOC(=O)Nc1cccc(NC(=O)c2ccccc2F)c1 | > 45.3 µg/mL |
| CC1CCCC(NC(=O)COC(=O)c2ccc(Br)o2)C1C (configuration not stated) | 8.2 µg/mL (≈ 22.9 µM) |
| CC(C)CCN1CCN(Cc2cc3ccccc3[nH]2)CC1CCO (configuration not stated) | 39.3 µg/mL (≈ 119 µM) |
| COc1ccc(Nc2ccc(C(N)=O)cc2[N+](=O)[O-])cc1 | 14.3 µg/mL (≈ 49.8 µM) |
| CCCc1nc(NCCO)c(C#N)c2c1CCCC2 | > 38.9 µg/mL |
| O=C(COC(=O)c1ccc2c(c1)OCO2)NC1CCCCC1 | 18.4 µg/mL (≈ 60.3 µM) |
| O=C(NCC(c1ccco1)N1CCCC1)c1ccc(-n2cccn2)cc1 (configuration not stated) | > 52.6 µg/mL |
| CN(Cc1nc(-c2cnccn2)no1)Cc1cccc2ccccc12 | 48.9 µg/mL (≈ 148 µM) |
| Cn1c(=NC(=O)c2cccc([N+](=O)[O-])c2)sc2ccccc21 | < 0.2 µg/mL |
| O=C(O)c1ccc(N/C(=N\S(=O)(=O)c2ccc(Cl)cc2)c2ccccc2)cc1 | 56.3 µg/mL (≈ 136 µM) |
| O=[N+]([O-])c1ccc(Oc2ncccn2)cc1 | 28.4 µg/mL (≈ 131 µM) |
| O=C(NCc1cccnc1)C1CCC(c2ccc(Cl)cc2)CC1 (configuration not stated) | 14.9 µg/mL (≈ 45.3 µM) |
| COc1cccc(CNC(=O)CCSCc2ccccc2F)c1 | 41.8 µg/mL (≈ 125 µM) |
| COCCNC(=S)N1CCC(NC(=O)c2ccco2)CC1 | > 46.7 µg/mL |
| CCC(NC(=O)C1CCCC1)c1ccc(C)cc1 (configuration not stated) | 34.8 µg/mL (≈ 142 µM) |
| O=C(CN1C(=O)NC2(CCc3ccccc32)C1=O)Nc1c(Cl)cccc1Cl (configuration not stated) | > 60.6 µg/mL |
| CCCOC(=O)Nc1nc(-c2ccc(C)cc2)c(C)s1 | 1.3 µg/mL (≈ 4.48 µM) |
| Cl.OCCN(CC#CC(O)(c1ccccc1)C1CCCCC1)CCO (configuration not stated) | 53 µg/mL |
| Cc1ccc(CNC(=O)CCNC(=O)c2ccc([N+](=O)[O-])cc2)cc1 | 41.2 µg/mL (≈ 121 µM) |
| O=C(Nc1ccc(CN2CCOCC2)cc1)c1cc(Cl)ccc1Cl | 50.1 µg/mL (≈ 137 µM) |
| O=C(NCc1ccccn1)Nc1ccc(Cl)cc1Cl | 9.2 µg/mL (≈ 31.1 µM) |

| SMILES | solubility kinetic |
| --- | --- |
| Cc1ccc(CNC(=O)CSc2nc3ccccc3c(=O)n2CC2CCCO2)cc1 (configuration not stated) | 4.5 µg/mL (≈ 10.6 µM) |
| Cc1ccc(Nc2nc(N)c([N+](=O)[O-])c(NCCO)n2)cc1C | 2.1 µg/mL (≈ 6.6 µM) |
| Cc1c(C(=O)N2CCN(S(=O)(=O)c3cccs3)CC2)oc2ccc(F)cc12 | 13.6 µg/mL (≈ 33.3 µM) |
| CCOC(=O)Cc1csc(NC(=O)c2cccc([N+](=O)[O-])c2)n1 | > 50.3 µg/mL |
| CCN1CCCC1CNC(=O)c1cc2cc(OC)c(OC)cc2[nH]1 (configuration not stated) | > 49.7 µg/mL |
| O=C1CC[C@@H](C(=O)N2CSC[C@H]2C(=O)O)N1 ([pGlu]-[Thz]-OH) | > 36.6 µg/mL |
| COc1ccc(NC(=O)CN(C)C2CCCCC2)cc1Cl | 32.7 µg/mL (≈ 105 µM) |
| COc1cc(/C=C/C(=O)OCC(=O)N(C)Cc2ccccc2)cc(OC)c1OC | > 59.9 µg/mL |
| C=CCc1ccc(OC(=O)NC2CCCCC2)c(OC)c1 | 4.5 µg/mL (≈ 15.6 µM) |
| O=C(NC(=S)N1CCN(c2ccccc2)CC1)c1ccccc1 | 6.4 µg/mL (≈ 19.7 µM) |
| COc1ccccc1C(=O)NC(=O)COC(=O)c1nccnc1N | > 49.5 µg/mL |
| COC(=O)C(C)NC(=O)C12CC3CC(C1)CC(c1ccc(C)cc1)(C3)C2 (configuration not stated) | 30.6 µg/mL (≈ 86.1 µM) |
| CCCCOCCCNC(=O)N[C@H](C(=O)OC)C(C)CC (some centres not stated) | > 45.4 µg/mL |
| NS(=O)(=O)c1ccc(-n2cccc2C=O)cc1 | 36.1 µg/mL (≈ 144 µM) |
| NC(=O)c1ccc(NC(=O)COC(=O)CC2CC3CCC2C3)cc1 (configuration not stated) | 13 µg/mL (≈ 39.3 µM) |
| CCOc1cccc(C(=O)NC2=NCCS2)c1 | 26.1 µg/mL (≈ 104 µM) |
| NC(=O)c1ccc(OCC(F)(F)F)nc1 | 31.1 µg/mL (≈ 141 µM) |
| Cc1sc2ccccc2[n+]1CC(=O)c1ccccc1.[Br-] | 42.6 µg/mL |
| CC(=O)OCCCN(C)CC/C=C1/c2ccccc2CSc2ccccc21.Cl | 53.8 µg/mL |
| Cc1cccc(OCC(=O)Nc2ccc(NC(=O)c3ccco3)c(C)c2)c1 | 4.4 µg/mL (≈ 12.1 µM) |
| COc1ccc2c(c1)c(C(=O)O)c(C)n2-c1ccccc1 | 38.4 µg/mL (≈ 137 µM) |
| OCCCc1cn(-c2ccccc2)c2ccccc12 | 22.1 µg/mL (≈ 87.9 µM) |
| O=C(CCc1ccccc1)Nc1cc2c(cc1C(=O)O)OCCCO2 | > 51.2 µg/mL |
| CCC(=O)Nc1ccccc1-c1nc2ccccc2[nH]c1=O | > 44 µg/mL |

| SMILES | solubility kinetic |
| --- | --- |
| CNc1oc(/C=C/c2cccc(OC)c2)nc1C#N | 3.7 µg/mL (≈ 14.5 µM) |
| COc1cc(C(NC=O)C(=O)Nc2c(C)cccc2C)ccc1O (configuration not stated) | 45.4 µg/mL (≈ 138 µM) |
| O=C(NCc1ccc2c(c1)OCO2)c1ccc(Br)s1 | 1.9 µg/mL (≈ 5.58 µM) |
| O=Cc1c(N2CCSCC2)nc2ccccn2c1=O | > 41.3 µg/mL |
| CSc1nsc(SCC(=O)Nc2ccc(O)c(C(=O)O)c2)n1 | > 53.6 µg/mL |
| Cc1cc(C)c(S(=O)(=O)Nc2nccs2)c(C)c1 | 36.1 µg/mL (≈ 128 µM) |
| O=C(Cc1ccsc1)Nc1ccccc1F | > 35.3 µg/mL |
| COc1ccc(C)cc1NC(=O)NCc1ccco1 | 11 µg/mL (≈ 42.3 µM) |
| O=C(CCNC(=O)c1ccccc1)NCc1ccccc1F | > 45 µg/mL |
| Cc1ccc(NC(=O)Cc2ccccc2)cc1S(=O)(=O)N1CCOCC1 | > 56.2 µg/mL |
| CSc1ccccc1C(=O)Nc1nc2ccccc2[nH]1 | 3.1 µg/mL (≈ 10.9 µM) |
| COCCNC(=S)N1CCN(S(=O)(=O)c2ccc(Cl)s2)CC1 | 11.4 µg/mL (≈ 29.7 µM) |
| CC1CC(C)CN(C(=O)COC(=O)c2ccc(Cl)nc2)C1 (configuration not stated) | > 46.6 µg/mL |
| Cn1c(=O)[nH]c(=O)c2c1nc(N)n2Cc1ccccc1 | > 40.7 µg/mL |
| O=C(NC(Cc1ccccc1)C(=O)O)NC12CC3CC(CC(C3)C1)C2 (configuration not stated) | > 51.4 µg/mL |
| Nc1ccc(C(=O)[O-])cc1.O.[Na+] | > 26.6 µg/mL |
| CCN(CC(=O)NCc1ccc(Cl)cc1)C(=O)c1cc(S(=O)(=O)N2CCOCC2)ccc1C | > 74.1 µg/mL |
| Cc1ccc(S(=O)(=O)N2CCC[C@H]2C(=O)NCc2ccccc2Cl)cc1 | > 58.9 µg/mL |
| CC(C)C(=O)NC(c1ccc(Cl)cc1Cl)c1ccc2cccnc2c1O (configuration not stated) | 2.8 µg/mL (≈ 7.19 µM) |
| COC(=O)c1cn(Cc2cc(OC)ccc2OC)cc(F)c1=O | > 48.2 µg/mL |
| CCOC(=O)Cc1csc(NC(=O)c2cc(=O)c3ccccc3o2)n1 | 51.8 µg/mL (≈ 145 µM) |
| O=C(Nc1cccc(OC(=O)N2CCCCC2)c1)N1CCOCC1 | > 50 µg/mL |
| C[C@H](NC(=O)[C@@H]1Cc2ccccc2CN1)C(=O)NC1CCCC1 | > 47.3 µg/mL |
| CCOC(=O)c1ccc(NC(=O)NC2CC3CCC(C2)N3)cc1 (configuration not stated) | 43.5 µg/mL (≈ 137 µM) |

| SMILES | solubility kinetic |
| --- | --- |
| O=C(NCc1cccnc1)C12CC3CC(CC(C3)C1)C2 | 38.7 µg/mL (≈ 143 µM) |
| CC1CCN(C(=O)NC(=O)c2ccc(Cl)cc2)CC1 | > 42.1 µg/mL |
| O=[N+]([O-])c1ccc2oc(C(O)c3cccc(Cl)c3)cc2c1 (configuration not stated) | 19.4 µg/mL (≈ 63.9 µM) |
| Cc1ccc(C(=O)NCC(=O)NC2CCCC2)cc1 | 30.4 µg/mL (≈ 117 µM) |
| Cc1ccc(S(=O)(=O)N2CCN(C(=O)c3ccco3)CC2)cc1C | 46 µg/mL (≈ 132 µM) |
| N/C(=N\OC(=O)c1cccc2ccccc12)c1ccccn1 | 38.2 µg/mL (≈ 131 µM) |
| Cc1nccc(-c2sc(-c3cccs3)nc2C)n1 | 2.6 µg/mL (≈ 9.51 µM) |
| COc1ccccc1NCCC(=O)OCC(=O)Nc1ccccc1F | > 52 µg/mL |
| COc1ccc(NC(=O)c2cc(-c3ccc(C)cc3)on2)cc1OC | < 0.4 µg/mL |
| O=C1CSC(c2ccccc2)N1Cc1ccccc1 (configuration not stated) | 31.3 µg/mL (≈ 116 µM) |
| COc1ccc(C(CCNCc2ccc(OC(C)C)cc2)C(C)C)cc1 (configuration not stated) | 49.4 µg/mL (≈ 139 µM) |
| Cc1ccc(SCC(=O)c2c(C)nc3cc(C)ccn23)cc1 | 0.7 µg/mL (≈ 2.25 µM) |
| Cn1c(O)c(C=Nc2ccccc2-c2ccccc2)c(=O)n(C)c1=O | < 0.2 µg/mL |
| C=CCn1c(N2CCOCC2)nc2c1c(=O)[nH]c(=O)n2C | > 43.7 µg/mL |
| Cc1cccc(CC2S/C(=N/c3cccc(C)n3)NC2=O)c1 (configuration not stated) | 0.7 µg/mL (≈ 2.25 µM) |
| O=C(CN1CCOCC1)NCCc1ccccc1 | > 37.2 µg/mL |
| CC(=O)N(c1nc(CCl)cs1)c1ccc(C)cc1C | > 44.2 µg/mL |
| COC(=O)CC1=C(C(=O)OC)[C@@H](c2ccccc2[N+](=O)[O-])C(C#N)=C(N)O1 | > 56 µg/mL |
| O=C(COC(=O)c1ccc(F)cc1F)Nc1ncccn1 | > 44 µg/mL |
| COc1ccc(N(CCC#N)C(=O)/C(C#N)=C\c2cccs2)cc1 | > 50.6 µg/mL |
| CCC(=O)NC(Cc1ccccc1)c1nc2ccccc2[nH]1 (configuration not stated) | > 44 µg/mL |
| COc1ccc(/C(N)=N/OC(=O)CCc2ccccc2)cc1 | 9.9 µg/mL (≈ 33.2 µM) |
| Cc1cccc(C(=O)N[C@@H](C)C(=O)N2CCN(c3ncccn3)CC2)c1 | > 53 µg/mL |
| O=C(CCN=C1NS(=O)(=O)c2ccccc21)NCc1ccccc1F | > 54.2 µg/mL |

| SMILES | solubility kinetic |
| --- | --- |
| Cl.c1ccc(OCC2CCNCC2)nc1 | 33.7 µg/mL |
| COc1ccccc1CNC(=O)CSc1n[nH]c(N)n1 | > 44 µg/mL |
| COc1ccc(NC(=O)COC(=O)CCc2ccc(S(=O)(=O)N3CCOCC3)cc2)cc1Cl | 19.6 µg/mL (≈ 39.4 µM) |
| Cc1ccc(NC(=O)c2cnc3ccccc3n2)cc1C | 0.3 µg/mL (≈ 1.08 µM) |
| CCOc1ccc(-c2ncncc2-c2ccc(OC)c(OC)c2)c(O)c1 | 3.6 µg/mL (≈ 10.2 µM) |
| Cc1ccc(S(=O)(=O)Oc2ccccc2/C=C2/SC(=O)NC2=O)cc1 | 52.7 µg/mL (≈ 140 µM) |
| COc1ccc(NC(C)=O)cc1S(=O)(=O)N1CC=C(c2ccccc2)CC1 | 2.6 µg/mL (≈ 6.73 µM) |
| COCCN(CCOC)S(=O)(=O)c1ccc(Cl)nc1 | 45.3 µg/mL (≈ 147 µM) |
| COc1ccc(OC)c(NC(=O)COC(=O)CCc2nc3ccccc3c(=O)[nH]2)c1 | > 61.7 µg/mL |
| CCOP(=O)(OCC)C(O)c1cccc([N+](=O)[O-])c1 (configuration not stated) | 39.2 µg/mL (≈ 136 µM) |
| N#CC1(NC(=O)CSc2nc3ccccc3s2)CCCCC1 | 46.4 µg/mL (≈ 140 µM) |
| C#CC[N+](CC)(CC)CC#Cc1ccccc1.[Br-] | 37.8 µg/mL |
| CC1Cc2ccccc2N1S(=O)(=O)c1cnc(Cl)c(Cl)c1 (configuration not stated) | 0.6 µg/mL (≈ 1.75 µM) |
| CC1SCC(=NOCc2ccccc2)CS1 (configuration not stated) | 11.5 µg/mL (≈ 45.4 µM) |
| COc1ccc(C(=O)/C=C2/C(=O)Nc3ccccc32)c(OC)c1 | 12.7 µg/mL (≈ 41.1 µM) |
| O=S(=O)([O-])CCC[n+]1ccc(Oc2ccccc2)cc1 | 21 µg/mL (≈ 71.6 µM) |
| CN1CCN(S(=O)(=O)c2ccc([N+](=O)[O-])cc2)CC1 | > 42.8 µg/mL |
| O=C(NCc1ccco1)C(=O)c1cn(CC(=O)N2CCCC2)c2ccccc12 | > 56.9 µg/mL |
| Cc1ccc(NC(=O)NCCN2CCCCC2)cc1Cl | > 44.4 µg/mL |
| Cc1ccc(NC(=S)NCc2ccc(Cl)cc2)c(C)c1 | 2.3 µg/mL (≈ 7.54 µM) |
| Cc1ccc(-c2nc(CNC(=O)c3cc(C)on3)cs2)cc1 | 35.4 µg/mL (≈ 113 µM) |
